Data reported in ChEMBL document CHEMBL5236617, “Rapid Evolution of a Fragment-like Molecule to Pan-Metallo-Beta-Lactamase Inhibitors: Initial Leads toward Clinical Candidates” (J Med Chem, 2022).
Values joined by “and” are separate entries in the source; they are usually repeats but may differ in a detail not shown here. Equal values may be shown once. Active and inactive are the calls of the source. No cut-off for these calls is given here.

Columns and labels:
[1] = Inhibition of GST-tagged bacterial beta-lactamase VIM-1 expressed in Escherichia coli BL21(DE3) using CCF2-FA as substrate by fluorescence assay; set-up: species or system Bacteria
[2] = Inhibition of GST-tagged bacterial beta-lactamase IMP-1 expressed in Escherichia coli BL21(DE3) using CCF2-FA as substrate by fluorescence assay; set-up: species or system Bacteria
[3] = Inhibition of GST-tagged bacterial beta-lactamase […] expressed in Escherichia coli BL21(DE3) using CCF2-FA as substrate by fluorescence assay; set-up: species or system Bacteria
Escherichia coli [4] = test: Potentiation of imipenem-induced antibacterial activity against NDM-1 expressing Escherichia coli assessed as imipenem MIC incubated for 22 to 24 hrs (reference value: 32 ug/ml); format: functional; conditions: time 22-24 hrs
Klebsiella pneumoniae [5] = test: Potentiation of imipenem-induced antibacterial activity against VIM-1 expressing Klebsiella pneumoniae assessed as imipenem MIC incubated for 22 to 24 hrs (reference value: 16 ug/ml); format: functional; conditions: time 22-24 hrs
Serratia marcescens = test: Potentiation of imipenem-induced antibacterial activity against IMP-1 expressing Serratia marcescens assessed as imipenem MIC incubated for 22 to 24 hrs (reference value: 16 ug/ml); format: functional; conditions: time 22-24 hrs
[6] = Selectivity ratio of MITC50 for IMP-1 expressing Serratia marcescens to IC50 for GST-tagged bacterial beta-lactamase IMP-1
[7] = Selectivity ratio of MITC50 for NDM-1 expressing Escherichia coli to IC50 for GST-tagged bacterial beta-lactamase […]
Escherichia coli [8] = test: Antibacterial activity against Escherichia coli CLB30005 expressing NDM-1 assessed as growth inhibition in presence of ZnSO4; format: functional, organism-based
[9] = Selectivity ratio of MITC50 for VIM-1 expressing Klebsiella pneumoniae to IC50 for GST-tagged bacterial beta-lactamase VIM-1
Klebsiella pneumoniae [10] = test: Antibacterial activity against Klebsiella pneumoniae MB9249 expressing IMP-26 infected in cyclophosphamide treated DBA/2 mouse assessed as reduction in bacterial burden in spleen at 5 mg/kg, sc administered three times for 1 day and measured after 24 hrs post injection; format: functional, organism-based
Klebsiella pneumoniae [11] = test: Antibacterial activity against Klebsiella pneumoniae MB9249 expressing IMP-26 infected in cyclophosphamide treated DBA/2 mouse assessed as reduction in bacterial burden in kidney at 5 mg/kg, sc administered three times for 1 day and measured after 24 hrs post injection; format: functional, organism-based

SMILES	IC50 [1]	IC50 [2]	IC50 [3]	Selectivity ratio [6]	Selectivity ratio [9]	MITC95 (Escherichia coli [4])	MITC95 (Klebsiella pneumoniae [5])	MITC95 (Serratia marcescens)	Selectivity ratio [7]	Activity (Escherichia coli [8])	Activity (Klebsiella pneumoniae [10])	Activity (Klebsiella pneumoniae [11])
Cc1ccc(-c2cccc(C(=O)O)c2-c2nnn[nH]2)cc1	6960 nM	2410 nM	3170 nM									
Nc1cc(-c2nnn[nH]2)c(S(N)(=O)=O)cc1S(N)(=O)=O	7 nM	17 nM	3.3 nM									
Cc1ccc(-c2cccc(S(=O)(=O)O)c2-c2nnn[nH]2)cc1	8640 nM	2360 nM	4960 nM									
C[C@@H](O)[C@H]1C(=O)N2C(C(=O)O)=C(SCCNC=N)C[C@H]12											Active	Active
NCCNC(=O)C[N+]12CC[N+](Cc3ccc(-c4ccc(C[C@H](C(=O)O)[C@H](Cc5ccccc5)C(=O)O)cc4)cc3)(CC1)CC2	2.8 nM		> 200 nM									

The next lines start with results.

IC50 [1]	IC50 [2]	IC50 [3]	Selectivity ratio [6]	Selectivity ratio [9]	SMILES	MITC95 (Escherichia coli [4])	MITC95 (Klebsiella pneumoniae [5])	MITC95 (Serratia marcescens)	Selectivity ratio [7]	Activity (Escherichia coli [8])	Activity (Klebsiella pneumoniae [10])	Activity (Klebsiella pneumoniae [11])
90 nM	330 nM	3 nM			NS(=O)(=O)c1cccc(-c2ccccn2)c1-c1nn[nH]n1	0.78 µM	25 µM					
670 nM	678 nM	21 nM			NS(=O)(=O)c1cncc(-c2ccc(CO)cc2)c1-c1nn[nH]n1	1.56 µM	100 µM					
4130 nM	767 nM	36 nM			NS(=O)(=O)c1ccnc(-c2ccc(CO)cc2)c1-c1nn[nH]n1	2.3 µM	>200 µM	37 µM				
58 nM	46 nM	2.4 nM			NS(=O)(=O)c1cccc(-c2ccc(CO)cc2)c1-c1nn[nH]n1		50 µM					
57.5 nM and 57 nM	64 nM	3.9 nM and 3.7 nM	215	2230	Cc1ccc(-c2cccc(S(N)(=O)=O)c2-c2nnn[nH]2)cc1	1.48 µM	127 µM	13.8 µM	400	inactive		
269 nM	1780 nM	24 nM	28	185	NS(=O)(=O)c1cccc(-c2cccnc2)c1-c1nn[nH]n1	0.39 µM	50 µM	50 µM	16			
